In patent US11434270B2, “Protein for neutralizing programmed necrocytosis promotion antibody, and application of protein” (SHANGHAI JW INFLINHIX CO., LTD., priority 2015, dated 2022):
Where a chain is given by its changes, count along the chain named.

B1: QLQWLNRRANALLANGVELRDNQLVVPSEGLYLIYSQVLFKGQGCPSTHVLLTHTISRIAVSYQTKVNLLSAIKSPCQRE (protein)
chain: QLQWLNRRANALLANGVELRDNQLVVPSEGLYLIYSQVLFKGQGCPSTHVLLTHTISRIAVSYQTKVNLLSAIKSPCQRE
B2: QLQWLNRRANALLANGVELRDNQLVVPSEGLYLIYSQVLFKGQGCPSTHVLLTHTISRIAVFHQTKVNLLSAIKSPCQRE (protein)
chain: B1 chain with S62F, Y63H
B3: 244-12: cell necrosis-promoting monoclonal antibody binding TNF epitope QLVVPSE; light chain SEQ ID NO: 9, heavy chain SEQ ID NO: 10 (antibody, listed as Homo sapiens)
heavy: QIQLVQSGPELKKPGETVKISCKASGYTFTNYGMNWVKQAPGKGLKWMGWINTYTGEPTYADDFKGRFAFSLETSANTAYLQINNLRNEGMATYFCARHYRYAWFPYWGQGTLVTVSAAKTTPPSVYPLAPGCGDTTGSSVTLGCLVKGYFPESVTVTWNSGSLSSSVHTFPALLQSGLYTMSSSVTVPSSTWPSQTVTCSVAHPASSTTVDKKLEPSGPISTINPCPPCKECHKCPAPNLEGGPSVFIFPPNIKDVLMISLTPKVTCVVVDVSEDDPDVQISWFVNNVEVHTAQTQTHREDYNSTIRVVSTLPIQHQDWMSGKEFKCKVNNKDLPSPIERTISKIKGLVRAPQVYILPPPAEQLSRKDVSLTCLVVGFNPGDISVEWASNGHTEENYKDTAPVLDSDGSYFIYSKLNMKTSKWEKTDSFSCNVRHEGLKNYYLKKTISRSPGK
light: DIQMTQSPASLSASVGETVTITCRASGNIHIYLAWYQQKQGKSPQLLVYNAKTLADGVPSRFSGSGSGTQYSLKINSLQPEDFGSYYCQHFWSIPWTFGGGTKLEIKRADAAPTVSIFPPSSEQLTSGGASVVCFLNNFYPKDINVKWKIDGSERQNGVLNSWTDQDSKDSTYSMSSTLTLTKDEYERHNSYTCEATHKTSTSPIVKSFNRNEC

Key:
[1] = test system: L929 cells; experiment: Apoptosis and necrosis test (live/dead staining, active caspase-3, flow cytometry) in L929 cells; format: cell-based, mouse
Experimental: (§1) In the presence of TNF or TNF peptide with or without 20 μM z-VAD-FMK (R & D Systems, Minneapolis, Minn.) or 20 μM Necrotatin-1 (PeproTech, Rocky Hill, N.J.) (Immunotools, Friesoythe, Germany), cells were incubated overnight (or the time shown in the incubation diagram). In some experiments, TNF was co-cultured with cells and the monoclonal antibody with indicated concentration or synovial fluid. Cells were stained using live/dead cell staining kit (Invitrogen, Paisley, UK) according to the manufacturer's manual and fixed using a cytofix/cytoperm fixation/permeabilization solution kit (BD Pharmingen, Oxford, UK). Intracellular staining was then performed using FITC-conjugated anti-caspase-3 antibody (Cell Signaling Technology, Danvers, Mass., USA). Cells were harvested by CyAn flow cytometer (Beckman Coulter, Fullerton, Calif.), and data were analysed by Flowjo (Tree Star Inc. Ashland, Oreg.).

[2] = test system: cell necrosis caused by cell necrosis-promoting antibody; experiment: Inhibition of cell necrosis caused by cell necrosis-promoting antibody; format: cell-based
Experimental: as §1

[3] = test system: cells; experiment: Stimulation of cell proliferation; format: cell-based; conditions: summary table
[4] = test system: cell necrosis-promoting antibody (244-12); experiment: ELISA binding of polypeptide to cell necrosis-promoting antibody; conditions: for binding to cell necrosis-promoting antibodies: summary table
Experimental: (§2) However, the reaction with synovial fluid of a control patient without autoantibodies (SF010) was negative. ELISA plates were coated with 2 μg/ml of P11-17, blocked with BSA, incubated with 244-12, SF024, SF045, SF010 at room temperature for 1 hour, and then identified with horseradish peroxidase […] anti-mouse or human IgG secondary antibody.

[5] = test system: monoclonal antibody 244-12; experiment: Competitive inhibition ELISA of TNF binding to monoclonal antibody 244-12; conditions: plates coated with TNF, peptide added, then 244-12
Experimental: (§3) ELISA plates were coated with 2 μg/ml of TNF at 4° C. overnight, or at 37° C. for 2 hours, and then incubated with a monoclonal antibodies at 37° C. for 1 hour. A second antibody conjugated to HRP was used to detect the reaction. For the inhibition assay, TNFR1 or synovial fluid was added together with the monoclonal antibody.
METHODS: plates were coated with TNF, and the indicated peptides were added to each well, and then the monoclonal antibody 244-12 was added.

[6] = test system: cells; experiment: Apoptosis and necrosis test, cell line not stated; format: cell-based; conditions: summary table
Experimental: as §1

[7] = test system: cell necrosis-promoting antibodies present in joint fluid of arthritis patients; experiment: ELISA binding of polypeptide to autoantibodies in synovial fluid of arthritis patients; set-up: species or system human; conditions: plate coated with 2 μg/ml of P11-17
Experimental: as §2

[8] = test system: C2812 cells (chondrocytes); experiment: Apoptosis test (active caspase-3) in C2812 chondrocytes; format: cell-based, human; conditions: antibody added to TNF
Experimental: as §1

[9] = test system: TNF receptors; experiment: L929 cell immunofluorescence microscopy: TNF/antibody binding to cell surface TNF receptors; format: cell-based, mouse
Experimental: At room temperature, 20 ng/ml of TNF and 2 μg/ml of mAb M26 or 244-12 were incubated for 1 hour. The mixture of TNF/M26 or TNF/244-12 were incubated on ice with L929 cells grown on coverslip for an another 15 minutes. The cells were fixed with 4% paraformaldehyde (PBS formulation) were for 10 minutes, blocked with phosphate buffer containing 0.5% BSA and 0.1% cold water fish gelatin for 15 minutes, and then incubated with rabbit anti-TNFR1 antibody (Abeam) for 1 hour. The cells were washed with PBS and then incubated with the relevant secondary antibody coupled to Alexa Fluor 488 or Alexa Fluor 568 (Invitrogen). Then the sample washed with PBS was mounted with Gelvatol/DABCO (Sigma-Aldrich). DNA was counterstained with DAPI (Sigma-Aldrich). All samples were analyzed by fluorescence microscopy at 60× using Nikon Eclipse 80i. Images were taken with NIS-Elements AR3.0 software using Hamamatsu camera.

[10] = target: T1, TNF (Homo sapiens, UniProt P01375); experiment: ELISA screening of monoclonal antibodies for binding to TNF; conditions: screening of 33 monoclonal antibodies
T1 construct: purchased Immunotools
Experimental: as §3

T1 sequence (P01375 whole entry): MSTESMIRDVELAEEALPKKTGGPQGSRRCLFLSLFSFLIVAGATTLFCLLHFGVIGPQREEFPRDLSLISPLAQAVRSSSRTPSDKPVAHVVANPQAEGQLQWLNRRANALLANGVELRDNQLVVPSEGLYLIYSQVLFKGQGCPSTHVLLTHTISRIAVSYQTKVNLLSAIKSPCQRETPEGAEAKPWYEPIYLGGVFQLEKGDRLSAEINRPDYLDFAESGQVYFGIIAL

Molecule	Inhibition of cell necrosis ([2]; summary table)	Stimulation of cell proliferation [3]	binding to cell necrosis-promoting antibodies [4]	competitive inhibition of binding of TNF to mAb 244-12 [5]	Apoptosis [6]	Necrosis [6]	further results
CN1C(=O)C(Cc2c[nH]c3ccccc23)NC1=S (stereo not drawn) [Nec-1, Necrotatin-1, reference compound]	–	–	–	–	–	–	necrosis induced by antibody 244-12 + TNF ([1]; Nec-1 added to 244-12+TNF, necrosis converted into apoptosis): can be inhibited
DNQLVVPSEG [P13-1]	Yes	no	Yes	significantly inhibited	no	no	–
NQLVVPSEGL [P13-2]	Yes	no	Yes	significantly inhibited	no	no	–
QLVVPSEGLY [P13-3]	Yes	no	Yes	significantly inhibited	no	no	–
RDNQLVVPSE [P12-10]	Yes	no	Yes	significantly inhibited	no	no	–
Tumor necrosis factor α [TNFα]	no	Yes	Yes	–	Yes	Yes	cell fate of L929 cells ([1]; TNF alone): apoptosis
B1	Yes	no	Yes	–	no	no	Inhibition of cell necrosis ([2]; necrosis caused by purified 244-12 or by antibody in patients' synovial fluid (SF002, SF045)): can effectively inhibit cell necrosis; binding to purified cell necrosis-promoting antibody (244-12) ([4]; ELISA plate coated with 2 μg/ml of P11-17): can bind; reaction with synovial fluid of a control patient without autoantibodies ([7]; sample SF010): negative; binding to cell necrosis-promoting antibodies in joint fluid of arthritis patients ([7]; samples SF024, SF045): bind
B2	Yes	no	Yes	–	no	no	–
B3	–	–	–	–	–	–	TNF-induced apoptosis (expression of active caspase-3) [8]: blocked; direct binding of antibody to cell surface ([9]; absence of TNF): cannot directly bind to cell surface; effect of antibody binding to TNF on binding of TNF to TNF receptors ([9]; confocal micrograph, L929 cells, TNF present): did not affect; TNF-induced apoptosis (expression of active caspase-3) ([1]; L929 cells, antibody added to TNF): blocked; cell fate of L929 cells ([1]; antibody added together with TNF): necrosis; binding to TNF by ELISA test [10]: strongest
